Columns and labels:
Settings in all cases: smilagenin 1 μM
[1] = system: Tumour Necrosis Factor (TNF), non-selective; test: Binding assay; design: species or system Human
Procedure: (§1) The receptor binding was investigated using the following method: Sarsasapogenin was incubated with tissue or cell homogenate that expressed the receptor of interest and a known concentration a radiolabelled compound with affinity for the receptor of interest. After the incubation period the non-bound radiolabelled compound was removed and the amount of specific binding was quantified. The amount of specific binding in the presence and absence of sarsasapogenin were compared and the percent inhibition of the binding of the radiolabelled compound by sarsasapogenin was calculated. The source of the receptor, the incubation conditions, the radiolabelled compound used varied depending on each specific assay.
(§2) Using the same methods as described above, the binding of smilagenin (1 μM) to the receptors listed in Table 2 below, and the effect of smilagenin on the activity of the enzymes listed in Table 2 below, were investigated.

Chemokine CXCR1 = test: Binding assay; design: species or system Human
Procedure: as §1, §2

Functional assay = type: biochemical
Procedure: The enzyme activity modulation was investigated using the following method: Sarsasapogenin was incubated with each enzyme plus a specific substrate for each enzyme. After the incubation period the reaction was stopped and the reduction of the specific substrate or the increase in a specific product in the absence and presence of sarsasapogenin was measured and the percent inhibition of the reaction in the presence of sarsasapogenin was calculated. The amount of enzyme used, the incubation conditions, the substrate used and the method of quantification varied depending on each specific assay.
as §2

Transporter, GABA = test: Binding assay; design: species or system Rat
Procedure: as §1, §2

Glutamate, NMDA, Agonism = test: Binding assay; design: species or system Rat
Procedure: as §1, §2

[2] = system: GABAA Chloride Channel, TBOB; test: Binding assay; design: species or system Rat
Procedure: as §1, §2

[3] = system: Calcium Channel L-Type, Benzothiazepine; test: Binding assay; design: species or system Rat
Procedure: as §1, §2

[4] = system: Glutamate, NMDA, Polyamine; test: Binding assay; design: species or system Rat
Procedure: as §1, §2

Imidazoline I2, central = test: Binding assay; design: species or system Rat
Procedure: as §1, §2

Rolipram = test: Binding assay; design: species or system Rat
Procedure: as §1, §2

[5] = system: GABAA Flunitrazepam, Central; test: Binding assay; design: species or system Rat
Procedure: as §1, §2

Thyroid Hormone = test: Binding assay; design: species or system Rat
Procedure: as §1, §2

Purinergic P2Y = test: Binding assay; design: species or system Rat
Procedure: as §1, §2

Potassium Channel [SKCA] = test: Binding assay; design: species or system Rat
Procedure: as §1, §2

Sodium Channel, Site 2 = test: Binding assay; design: species or system Rat
Procedure: as §1, §2

Potassium Channel [KA] = test: Binding assay; design: species or system Rat
Procedure: as §1, §2

[6] = system: Inositol trisphosphate IP3; test: Binding assay; design: species or system Rat
Procedure: as §1, §2

Gabapentin = test: Binding assay; design: species or system Rat
Procedure: as §1, §2

[7] = system: Glutamate, NMDA, Phencyclidine; test: Binding assay; design: species or system Rat
Procedure: as §1, §2

Glutamate, Kainate = test: Binding assay; design: species or system Rat
Procedure: as §1, §2

[8] = system: Calcium Channel L-Type, Phenylalkylamine; test: Binding assay; design: species or system Rat
Procedure: as §1, §2

Glutamate, AMPA = test: Binding assay; design: species or system Rat
Procedure: as §1, §2

[9] = system: Calcium Channel L-Type, Dihydropyridine; test: Binding assay; design: species or system Rat
Procedure: as §1, §2

GABAA Muscimol, Central = test: Binding assay; design: species or system Rat
Procedure: as §1, §2

Interleukin IL-6 = Interleukin IL-6 (Homo sapiens, UniProt P08887); test: Binding assay
Sequence of Interleukin IL-6 (P08887 20-468): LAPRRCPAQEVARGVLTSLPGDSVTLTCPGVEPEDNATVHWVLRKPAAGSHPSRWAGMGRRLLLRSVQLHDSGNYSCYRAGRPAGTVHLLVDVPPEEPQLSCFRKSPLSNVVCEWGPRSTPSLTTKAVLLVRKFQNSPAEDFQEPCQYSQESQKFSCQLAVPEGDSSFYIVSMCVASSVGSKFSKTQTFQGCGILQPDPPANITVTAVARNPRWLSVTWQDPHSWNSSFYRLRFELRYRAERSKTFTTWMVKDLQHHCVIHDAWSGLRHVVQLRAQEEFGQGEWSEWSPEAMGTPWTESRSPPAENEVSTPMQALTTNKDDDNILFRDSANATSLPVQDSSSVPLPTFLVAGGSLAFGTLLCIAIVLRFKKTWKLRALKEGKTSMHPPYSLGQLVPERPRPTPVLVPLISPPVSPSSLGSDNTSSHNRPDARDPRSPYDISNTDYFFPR
Procedure: as §1, §2

Bradykinin B2 = Bradykinin B2 (Homo sapiens, UniProt P30411); test: Binding assay
Sequence of Bradykinin B2 (P30411 whole entry): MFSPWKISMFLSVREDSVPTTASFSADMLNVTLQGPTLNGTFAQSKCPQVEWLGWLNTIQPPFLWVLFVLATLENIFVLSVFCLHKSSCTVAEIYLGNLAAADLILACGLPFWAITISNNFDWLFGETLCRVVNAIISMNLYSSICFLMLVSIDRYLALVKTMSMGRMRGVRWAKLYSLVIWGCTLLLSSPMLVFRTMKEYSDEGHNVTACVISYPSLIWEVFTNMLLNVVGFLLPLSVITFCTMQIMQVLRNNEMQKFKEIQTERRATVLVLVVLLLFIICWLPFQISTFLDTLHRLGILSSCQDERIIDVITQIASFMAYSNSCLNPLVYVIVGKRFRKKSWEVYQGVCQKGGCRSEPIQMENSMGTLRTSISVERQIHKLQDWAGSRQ
Procedure: as §1, §2

Adrenergic α1A = Adrenergic α1A (Rattus norvegicus, UniProt P43140); test: Binding assay
Sequence of Adrenergic α1A (P43140 whole entry): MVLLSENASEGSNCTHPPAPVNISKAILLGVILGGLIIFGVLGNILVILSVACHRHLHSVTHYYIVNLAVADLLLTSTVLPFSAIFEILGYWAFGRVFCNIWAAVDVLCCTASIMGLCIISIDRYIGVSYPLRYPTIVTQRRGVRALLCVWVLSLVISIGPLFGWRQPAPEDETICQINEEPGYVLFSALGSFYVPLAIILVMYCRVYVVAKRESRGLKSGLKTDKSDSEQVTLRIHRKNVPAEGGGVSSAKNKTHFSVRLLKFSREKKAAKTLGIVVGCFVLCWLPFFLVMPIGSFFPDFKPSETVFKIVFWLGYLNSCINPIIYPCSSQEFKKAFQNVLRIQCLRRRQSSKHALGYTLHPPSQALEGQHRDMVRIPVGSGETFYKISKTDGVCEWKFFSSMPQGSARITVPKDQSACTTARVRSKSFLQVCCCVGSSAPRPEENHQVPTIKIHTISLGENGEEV
Procedure: as §1, §2

Sigma σ2 = Sigma σ2 (Rattus norvegicus, UniProt Q5U3Y7); test: Binding assay
Sequence of Sigma σ2 (Q5U3Y7 whole entry): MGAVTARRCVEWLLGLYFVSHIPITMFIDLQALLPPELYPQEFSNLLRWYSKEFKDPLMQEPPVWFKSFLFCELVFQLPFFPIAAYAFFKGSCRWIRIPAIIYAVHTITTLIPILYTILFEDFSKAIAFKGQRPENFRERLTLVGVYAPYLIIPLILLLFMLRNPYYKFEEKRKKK
Procedure: as §1, §2

Vanilloid = target: T1, Vanilloid (Rattus norvegicus, UniProt O35433); test: Binding assay
T1 construct: host or cells: tissue or cell homogenate, not specified
T1 sequence (O35433 whole entry): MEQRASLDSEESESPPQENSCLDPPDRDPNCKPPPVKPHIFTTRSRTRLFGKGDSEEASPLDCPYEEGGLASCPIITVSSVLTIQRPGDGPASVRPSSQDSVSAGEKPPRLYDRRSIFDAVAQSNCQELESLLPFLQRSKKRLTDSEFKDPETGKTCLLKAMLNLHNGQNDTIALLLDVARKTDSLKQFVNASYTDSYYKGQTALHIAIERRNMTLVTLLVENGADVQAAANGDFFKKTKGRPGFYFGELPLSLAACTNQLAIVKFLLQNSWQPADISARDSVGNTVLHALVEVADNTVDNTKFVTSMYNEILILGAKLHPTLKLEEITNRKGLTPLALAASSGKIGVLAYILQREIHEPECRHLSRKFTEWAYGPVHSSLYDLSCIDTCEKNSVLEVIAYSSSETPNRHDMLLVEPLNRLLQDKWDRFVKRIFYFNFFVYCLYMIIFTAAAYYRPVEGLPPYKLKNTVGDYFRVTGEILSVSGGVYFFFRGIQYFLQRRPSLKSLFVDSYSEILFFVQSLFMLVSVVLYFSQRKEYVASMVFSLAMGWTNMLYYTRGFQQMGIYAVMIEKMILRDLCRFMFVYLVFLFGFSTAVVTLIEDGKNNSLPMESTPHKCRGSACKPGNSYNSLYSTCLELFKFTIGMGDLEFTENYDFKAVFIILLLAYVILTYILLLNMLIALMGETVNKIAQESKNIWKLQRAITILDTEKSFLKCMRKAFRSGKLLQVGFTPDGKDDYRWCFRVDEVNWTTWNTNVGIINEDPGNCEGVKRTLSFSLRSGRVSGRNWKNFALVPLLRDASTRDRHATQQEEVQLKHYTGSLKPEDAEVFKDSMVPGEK
Procedure: as §1, §2

Potassium Channel [KATP] = test: Binding assay
Procedure: as §1, §2

[10] = target: Platelet Activating Factor (PAF) (Homo sapiens, UniProt P25105); test: Binding assay
Sequence of Platelet Activating Factor (PAF) (P25105 whole entry): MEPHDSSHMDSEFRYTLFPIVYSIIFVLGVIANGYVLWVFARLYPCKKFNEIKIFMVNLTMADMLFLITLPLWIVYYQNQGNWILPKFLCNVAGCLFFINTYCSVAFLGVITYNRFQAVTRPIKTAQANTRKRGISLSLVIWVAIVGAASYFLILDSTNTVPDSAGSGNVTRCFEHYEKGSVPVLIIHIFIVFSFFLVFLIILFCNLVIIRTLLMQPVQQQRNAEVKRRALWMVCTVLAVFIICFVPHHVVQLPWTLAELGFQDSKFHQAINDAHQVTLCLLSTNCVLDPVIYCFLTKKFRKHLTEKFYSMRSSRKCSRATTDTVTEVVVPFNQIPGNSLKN
Procedure: as §1, §2

Melatonin MT2 = Melatonin MT2 (Homo sapiens, UniProt P49286); test: Binding assay
Sequence of Melatonin MT2 (P49286 whole entry): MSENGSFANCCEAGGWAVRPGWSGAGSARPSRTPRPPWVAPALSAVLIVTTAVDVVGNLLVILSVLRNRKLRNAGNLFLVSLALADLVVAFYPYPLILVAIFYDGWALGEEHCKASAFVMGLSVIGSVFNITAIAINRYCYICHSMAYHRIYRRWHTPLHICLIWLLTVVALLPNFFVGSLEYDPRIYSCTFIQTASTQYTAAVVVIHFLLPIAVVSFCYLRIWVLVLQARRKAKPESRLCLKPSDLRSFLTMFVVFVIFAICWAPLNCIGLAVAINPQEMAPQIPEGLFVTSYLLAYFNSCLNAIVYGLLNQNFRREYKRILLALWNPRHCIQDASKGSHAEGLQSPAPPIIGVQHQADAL
Procedure: as §1, §2

Calcium Channel N-Type = Calcium Channel N-Type (Rattus norvegicus, UniProt Q02294); test: Binding assay
Procedure: as §1, §2

[11] = target: N-Formyl Peptide Receptor-Like FPRL1 (Homo sapiens, UniProt P25090); test: Binding assay
Sequence of N-Formyl Peptide Receptor-Like FPRL1 (P25090 whole entry): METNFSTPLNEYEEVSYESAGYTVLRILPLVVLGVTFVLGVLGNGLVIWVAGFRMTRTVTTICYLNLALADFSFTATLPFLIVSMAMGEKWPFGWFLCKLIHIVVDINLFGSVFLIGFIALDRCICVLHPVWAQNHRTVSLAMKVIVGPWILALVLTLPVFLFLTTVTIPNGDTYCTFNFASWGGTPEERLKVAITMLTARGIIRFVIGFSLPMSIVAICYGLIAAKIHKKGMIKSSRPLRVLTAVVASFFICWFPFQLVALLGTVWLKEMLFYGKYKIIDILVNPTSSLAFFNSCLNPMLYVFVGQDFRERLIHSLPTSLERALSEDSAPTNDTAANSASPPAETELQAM
Procedure: as §1, §2

[12] = target: 5-Hydroxytryptamine, 5-HT5A (Homo sapiens, UniProt P47898); test: Binding assay
Sequence of 5-Hydroxytryptamine, 5-HT5A (P47898 whole entry): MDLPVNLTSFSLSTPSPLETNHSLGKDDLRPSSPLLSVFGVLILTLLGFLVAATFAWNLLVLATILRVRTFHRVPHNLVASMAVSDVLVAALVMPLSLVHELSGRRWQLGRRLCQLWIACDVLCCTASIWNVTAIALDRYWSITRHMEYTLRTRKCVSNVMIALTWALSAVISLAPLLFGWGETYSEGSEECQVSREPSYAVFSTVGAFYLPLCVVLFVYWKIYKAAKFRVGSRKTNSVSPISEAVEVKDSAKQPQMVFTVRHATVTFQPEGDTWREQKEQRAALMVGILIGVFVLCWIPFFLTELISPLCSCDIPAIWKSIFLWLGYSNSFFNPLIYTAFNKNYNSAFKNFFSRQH
Procedure: as §1, §2

Vasopressin V1B = target: T2, Vasopressin V1B (Homo sapiens, UniProt P47901); test: Binding assay
T2 construct: host or cells: tissue or cell homogenate, not specified
T2 sequence (P47901 whole entry): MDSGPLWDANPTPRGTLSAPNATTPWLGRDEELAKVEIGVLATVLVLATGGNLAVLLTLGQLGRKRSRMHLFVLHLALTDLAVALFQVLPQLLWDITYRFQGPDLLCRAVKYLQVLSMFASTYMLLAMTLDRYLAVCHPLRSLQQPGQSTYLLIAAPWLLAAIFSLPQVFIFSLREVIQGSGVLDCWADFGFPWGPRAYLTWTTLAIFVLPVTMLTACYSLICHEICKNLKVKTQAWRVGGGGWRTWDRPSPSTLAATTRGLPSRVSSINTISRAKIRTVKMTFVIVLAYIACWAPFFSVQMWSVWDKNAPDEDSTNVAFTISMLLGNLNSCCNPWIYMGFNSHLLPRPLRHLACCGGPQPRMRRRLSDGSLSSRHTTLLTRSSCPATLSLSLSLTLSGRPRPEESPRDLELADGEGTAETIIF
Procedure: as §1, §2

[13] = target: 5-Hydroxytryptamine, 5-HT6 (Homo sapiens, UniProt P50406); test: Binding assay
Sequence of 5-Hydroxytryptamine, 5-HT6 (P50406 whole entry): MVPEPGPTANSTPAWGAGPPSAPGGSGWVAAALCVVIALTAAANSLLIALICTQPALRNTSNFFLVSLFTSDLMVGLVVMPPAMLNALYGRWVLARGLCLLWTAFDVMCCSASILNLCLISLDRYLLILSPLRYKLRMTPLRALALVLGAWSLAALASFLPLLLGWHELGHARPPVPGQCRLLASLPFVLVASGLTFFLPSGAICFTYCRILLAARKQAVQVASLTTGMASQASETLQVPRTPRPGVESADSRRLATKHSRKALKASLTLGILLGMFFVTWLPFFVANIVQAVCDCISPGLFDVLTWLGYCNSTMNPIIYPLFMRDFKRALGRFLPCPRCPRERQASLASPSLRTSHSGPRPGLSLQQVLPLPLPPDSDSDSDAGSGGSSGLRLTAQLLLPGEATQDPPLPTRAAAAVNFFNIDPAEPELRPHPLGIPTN
Procedure: as §1, §2

C[C@@H]1CC[C@@]2(OC1)O[C@H]1C[C@H]3[C@@H]4CC[C@@H]5C[C@@H](O)CC[C@]5(C)[C@H]4CC[C@]3(C)[C@H]1[C@@H]2C [Smilagenin, smilagenin]
Effect (%) [1]: NS (NS = No significant response. Significance was taken as ≧30% stimulation or inhibition)
Effect (%) (Chemokine CXCR1): NS (NS = No significant response. Significance was taken as ≧30% stimulation or inhibition)
Effect (%) (Functional assay): NS (NS = No significant response. Significance was taken as ≧30% stimulation or inhibition)
Effect (%) (Transporter, GABA): NS (NS = No significant response. Significance was taken as ≧30% stimulation or inhibition)
Effect (%) (Glutamate, NMDA, Agonism): NS (NS = No significant response. Significance was taken as ≧30% stimulation or inhibition)
Effect (%) [2]: NS (NS = No significant response. Significance was taken as ≧30% stimulation or inhibition)
Effect (%) [3]: NS (NS = No significant response. Significance was taken as ≧30% stimulation or inhibition)
Effect (%) [4]: NS (NS = No significant response. Significance was taken as ≧30% stimulation or inhibition)
Effect (%) (Imidazoline I2, central): NS (NS = No significant response. Significance was taken as ≧30% stimulation or inhibition)
Effect (%) (Rolipram): NS (NS = No significant response. Significance was taken as ≧30% stimulation or inhibition)
Effect (%) [5]: NS (NS = No significant response. Significance was taken as ≧30% stimulation or inhibition)
Effect (%) (Thyroid Hormone): NS (NS = No significant response. Significance was taken as ≧30% stimulation or inhibition)
Effect (%) (Purinergic P2Y): NS (NS = No significant response. Significance was taken as ≧30% stimulation or inhibition)
Effect (%) (Potassium Channel [SKCA]): NS (NS = No significant response. Significance was taken as ≧30% stimulation or inhibition)
Effect (%) (Sodium Channel, Site 2): NS (NS = No significant response. Significance was taken as ≧30% stimulation or inhibition)
Effect (%) (Potassium Channel [KA]): NS (NS = No significant response. Significance was taken as ≧30% stimulation or inhibition)
Effect (%) [6]: NS (NS = No significant response. Significance was taken as ≧30% stimulation or inhibition)
Effect (%) (Gabapentin): NS (NS = No significant response. Significance was taken as ≧30% stimulation or inhibition)
Effect (%) [7]: NS (NS = No significant response. Significance was taken as ≧30% stimulation or inhibition)
Effect (%) (Glutamate, Kainate): NS (NS = No significant response. Significance was taken as ≧30% stimulation or inhibition)
Effect (%) [8]: NS (NS = No significant response. Significance was taken as ≧30% stimulation or inhibition)
Effect (%) (Glutamate, AMPA): NS (NS = No significant response. Significance was taken as ≧30% stimulation or inhibition)
Effect (%) [9]: NS (NS = No significant response. Significance was taken as ≧30% stimulation or inhibition)
Effect (%) (GABAA Muscimol, Central): NS (NS = No significant response. Significance was taken as ≧30% stimulation or inhibition)
Effect (%) (Interleukin IL-6): NS (NS = No significant response. Significance was taken as ≧30% stimulation or inhibition)
Effect (%) (Bradykinin B2): NS (NS = No significant response. Significance was taken as ≧30% stimulation or inhibition)
Effect (%) (Adrenergic α1A): NS (NS = No significant response. Significance was taken as ≧30% stimulation or inhibition)
Effect (%) (Sigma σ2): NS (NS = No significant response. Significance was taken as ≧30% stimulation or inhibition)
Effect (%) (Vanilloid): NS (NS = No significant response. Significance was taken as ≧30% stimulation or inhibition)
Effect (%) (Potassium Channel [KATP]): NS (NS = No significant response. Significance was taken as ≧30% stimulation or inhibition)
Effect (%) [10]: NS (NS = No significant response. Significance was taken as ≧30% stimulation or inhibition)
Effect (%) (Melatonin MT2): NS (NS = No significant response. Significance was taken as ≧30% stimulation or inhibition)
Effect (%) (Calcium Channel N-Type): NS (NS = No significant response. Significance was taken as ≧30% stimulation or inhibition)
Effect (%) [11]: NS (NS = No significant response. Significance was taken as ≧30% stimulation or inhibition)
Effect (%) [12]: NS (NS = No significant response. Significance was taken as ≧30% stimulation or inhibition)
Effect (%) (Vasopressin V1B): NS (NS = No significant response. Significance was taken as ≧30% stimulation or inhibition)
Effect (%) [13]: NS (NS = No significant response. Significance was taken as ≧30% stimulation or inhibition)

— US20120034193A1, “TREATMENT OF NEUROTROPHIC FACTOR MEDIATED DISORDERS” (priority 2009, published 2012)
